Source: the supplement of paper PMC10878532, “Sperm Toolbox—A selection of small molecules to study human spermatozoa” (PLOS ONE, 2024)
Where a name gives a salt, the structure may show the parent alone.

Legend:
[1] = tested on: human spermatozoa; test: progressively motile sperm, percent change vs DMSO (non-capacitating); higher = more of the measured sperm population than DMSO, for viability, fewer PI-positive (dead) cells than DMSO; extreme values may be limits of the assay
[2] = tested on: HeLa; test: HeLa toxicity: nuclei-count effect normalised to DMSO (DMSO = 0); higher = more features changed / larger toxic effect; settings: incubation time: 24h incubation
[3] = tested on: human spermatozoa; test: change in acrosome-reacted (PNA+) sperm vs DMSO, no agonist (capacitating); higher = more of the measured sperm population than DMSO, for viability, fewer PI-positive (dead) cells than DMSO; settings: incubation time: 3h
[4] = tested on: human spermatozoa; test: acrosome-reacted (PNA+) sperm after agonist cocktail, percent change vs DMSO (capacitating); higher = more of the measured sperm population than DMSO, for viability, fewer PI-positive (dead) cells than DMSO; settings: incubation time: 3h, capacitating + agonist cocktail 1h
[5] = tested on: HeLa; test: Cell Painting percent induction (share of features beyond 2 z-scores vs DMSO); higher = more features changed / larger toxic effect; extreme values may be limits of the assay; settings: incubation time: 24h incubation
[6] = tested on: human spermatozoa; test: viability fold change, 1 - (PI-positive fraction / DMSO median); higher = more of the measured sperm population than DMSO, for viability, fewer PI-positive (dead) cells than DMSO; settings: incubation time: 3h, non-capacitating
[7] = tested on: HepG2; test: HepG2 toxicity (resazurin), effect normalised to DMSO (DMSO = 0); higher = more features changed / larger toxic effect; settings: incubation time: 70h incubation
[8] = tested on: human spermatozoa; test: progressively motile sperm, percent change vs DMSO (capacitating); higher = more of the measured sperm population than DMSO, for viability, fewer PI-positive (dead) cells than DMSO; settings: incubation time: 30min incubation
[9] = tested on: human spermatozoa; test: total motile sperm, percent change vs DMSO (non-capacitating); higher = more of the measured sperm population than DMSO, for viability, fewer PI-positive (dead) cells than DMSO
[10] = tested on: human spermatozoa; test: hyperactivated motile sperm, percent change vs DMSO (capacitating); higher = more of the measured sperm population than DMSO, for viability, fewer PI-positive (dead) cells than DMSO; settings: incubation time: 30min incubation
[11] = incubation time: 10min incubation, 9.99 µM
[12] = incubation time: 10min incubation, 29.9 µM
[13] = incubation time: 3h incubation, 9.99 µM
[14] = incubation time: 3h incubation, 29.9 µM
[15] = incubation time: 6h incubation, 9.99 µM
[16] = incubation time: 6h incubation, 29.9 µM
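Throughout, for progressively motile sperm, percent change vs DMSO (non-capacitating): pooled live human sperm from at least 3 donors, tracked by automated microscopy in 0.5 s time-lapse movies, compounds at 10 and 30 µM, versus median of 16 DMSO wells per plate.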
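Throughout, for total motile sperm, percent change vs DMSO (non-capacitating): sperm pooled from at least 3 donors, tracked in 0.5 s time-lapse movies by automated microscopy after 10 min, 3 h or 6 h with compound at 10 or 30 µM.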

SMILES	progressively motile sperm [1, 11]	progressively motile sperm [1, 12]	progressively motile sperm [1, 13]	progressively motile sperm [1, 14]	progressively motile sperm [1, 15]	progressively motile sperm [1, 16]	HeLa toxicity: nuclei-count effect normalised ([2]; 9.99 µM)	HeLa toxicity: nuclei-count effect normalised ([2]; 29.9 µM)	change in acrosome-reacted ([3]; 9.99 µM)	change in acrosome-reacted ([3]; 29.9 µM)	acrosome-reacted ([4]; 9.99 µM)	acrosome-reacted ([4]; 29.9 µM)	Cell Painting percent induction ([5]; 9.99 µM)	Cell Painting percent induction ([5]; 29.9 µM)	viability fold change ([6]; 9.99 µM)	viability fold change ([6]; 29.9 µM)	HepG2 toxicity ([7]; 10 µM)	HepG2 toxicity ([7]; 30 µM)	progressively motile sperm ([8]; 9.99 µM)	progressively motile sperm ([8]; 29.9 µM)	total motile sperm [9, 11]	total motile sperm [9, 12]	total motile sperm [9, 13]	total motile sperm [9, 14]	total motile sperm [9, 15]	total motile sperm [9, 16]	hyperactivated motile sperm ([10]; 9.99 µM)	hyperactivated motile sperm ([10]; 29.9 µM)
Nc1nonc1C(=O)c1cccc(OCc2nc3ccccc3[nH]2)c1 [ASI-8]	-2.86%	-2.99%	-14.7%	-20.6%	-17.4%	-29.2%	-5.48%	1.8%	0.432%	0.568%	-14.8%	-14.9%	0.036%	0.072%	-0.34	-0.223	7.95%	-4.37%	11.1%	6.99%	3.13%	2.79%	1.2%	-0.414%	3.96%	1.2%	-38%	-39.8%
NC(=O)Nc1cc(-c2cccc(F)c2)sc1C(=O)N[C@H]1CCCNC1 [AZD 7762 hydrochloride]	-49.3%	-57.6%	-35.4%	-48.7%	-30.8%	-49.2%	80.1%	76.8%	0.07%	1.03%	-44.6%	-44%	17%	11%	-0.829	-1.22	101%	101%	-19.7%	-30.7%	-11.3%	-17.4%	-10.7%	-22.4%	-13.2%	-23.1%	-57.9%	-72%
CCCCC(CC)C/N=C(\N)N/C(N)=N/CCCCCC/N=C(\N)N/C(N)=N/CC(CC)CCCC (stereo unspecified) [Alexidine dihydrochloride]	-63.3%	-99.9%	-99.9%	-100%	-100%	-100%	82.5%	57.3%	65.4%	86.5%	148%	214%	4.11%	13.2%	-2.59	-3.31	89.8%	103%	-95.3%	-100%	-25.4%	-91.3%	-92.5%	-89.6%	-92.8%	-89.2%	-81.6%	-86.5%
COc1cc2nc(N(C)CCCNC(=O)C3CCCO3)nc(N)c2cc1OC (stereo unspecified) [Alfuzosin]	0.477%	-1.83%	14.5%	16.4%	16.7%	20.9%	5.08%	0.668%	-0.201%	-0.552%	-3.12%	0.779%	0%	0%	-0.036	-0.0945	-1.03%	4.29%	16%	9.67%	-4.58%	-4.17%	-0.419%	-6.01%	-5.29%	-6.7%	37.3%	5.32%
CCCCC/C=C\C/C=C\C/C=C\C/C=C\CCCC(=O)NCCO [Anandamide]	0.835%	4.89%	8.76%	18.1%	15.3%	17.7%	3.27%	22.7%	0.407%	0.71%	-2.45%	-3.7%	0%	0%	-1.03	-1.89	4%	-4.04%	5.07%	5.94%	0.0733%	1.31%	-5.97%	0.46%	-4.78%	-4.35%	-8.05%	-17.2%
Cn1c(=O)c2c(-c3ccccc3)n3c(c2n(C)c1=O)[C@H](c1ccc(Br)o1)Oc1ccc(C(=O)O)cc1-3 [BPO-27]	4.77%	14.7%	32.6%	41.5%	37.8%	42.7%	-5.61%	-3.14%	0.114%	-0.202%	6.48%	12.2%	0.901%	0%	-0.786	-0.502	6.74%	-5.25%	-0.551%	-1.51%	-0.595%	-2.15%	1.67%	-2.1%	2.71%	-8.78%	26.2%	0.866%
Oc1c(Cl)cc(Cl)cc1Sc1cc(Cl)cc(Cl)c1O [Bithionol]	3.11%	-10.9%	11.4%	-27.5%	17.4%	-30.7%	-4.61%	21.5%	0.572%	1.65%	1.08%	-1.64%	0%	0.036%	0.0494	0.376	7.02%	59.3%	2.24%	1.88%	3.44%	1.84%	1.98%	-0.0801%	2.41%	-5.59%	4.13%	7.86%
NC(=O)c1cc(-c2ccc(S(=O)(=O)[C@H]3CC[C@H](Nc4ccc(C(F)(F)F)cn4)CC3)cc2)ccn1 [CCR6 inhibitor 1]	20.1%	23%	25.5%	9.27%	37.7%	-18.5%	38.5%	82.3%	0.47%	1.33%	47.9%	31%	0.144%	1.51%	-1.3	-0.257	93.6%	97.6%	4.84%	-2.5%	-1.18%	-0.388%	-10.1%	-17.5%	-12.7%	-30%	0.384%	-27%
O=C(O)c1ccc(/C=C2/SC(=S)N(c3cccc(C(F)(F)F)c3)C2=O)cc1 [CTFRinh-172]	3.85%	-3.67%	4.25%	3.7%	-2.41%	3.06%	0.134%	4.28%	0.257%	-0.529%	2.51%	5.75%	1.51%	2.67%	-0.401	-0.284	10.5%	-1.68%	-6.92%	-8.59%	-0.0195%	0.898%	0.0108%	-0.0432%	-7.63%	-1.41%	-0.45%	-19.9%
CCOc1ccc(-c2nc(-c3cccc4c3CCC4NCCO)no2)cc1OCC (stereo unspecified) [CYM 5442 hydrchloride]	15.6%	3.34%	40%	14.5%	51.9%	21.7%	-0.601%	18%	2.58%	4.61%	63%	75.1%	4.97%	3.13%	-0.289	-0.544	14.4%	101%	3.76%	6.19%	0.362%	-6.08%	7.62%	-11.7%	7.81%	-12.3%	46.2%	45.7%
Nc1nc(Cl)nc2c1ncn2[C@@H]1O[C@H](CO)[C@@H](O)[C@@H]1F [Clofarabine]	21.7%	19.3%	50.7%	35.6%	46.2%	29.9%	47.6%	47.5%	1.07%	0.866%	87.1%	104%	0.396%	0.54%	-0.45	-0.516	12.2%	19.6%	10.5%	12.9%	-6.85%	-9.16%	-17.7%	-20.8%	-25.1%	-28.8%	206%	262%
Clc1ccc(C(OCCN2CCCCC2)c2ccccc2)cc1 (stereo unspecified) [Cloperastine hydrochloride]	7.41%	-9.23%	-87%	-98.1%	-86.3%	-97.8%	6.68%	19.6%	1.21%	0.462%	-1.44%	-4.86%	1.84%	3.64%	-1.96	-1.7	7.17%	8.06%	5.13%	-14.3%	1.61%	2.24%	-3.5%	-29.1%	-19.1%	-44%	-26.2%	-69.6%
CNS(=O)(=O)c1ccccc1Nc1nc(Nc2ccc(C3CCN(C)CC3)cc2OC)ncc1Cl [Compound 19]	-91.3%	-92.3%	-90.1%	-93.7%	-90.5%	-96%	98.9%	97.1%	1.02%	5.53%	-19.8%	31.9%	51.7%	53.2%	-0.353	-1.11	103%	103%	-48.6%	-61.5%	-56.4%	-58.2%	-66.7%	-69.7%	-63.1%	-74.1%	-80.3%	-81.6%
CCOC(=O)CSc1nc(=O)c(NCC(=O)OC)n[nH]1 [Compound B4]	0.38%	-0.636%	7.69%	-26.4%	4.42%	-27.1%	-3.67%	-5.81%	0.981%	1.58%	78.6%	102%	0%	0%	-0.743	-0.817	-2.06%	5.66%	3.54%	-5%	-1.27%	-2.9%	-1.69%	-8.87%	-5.02%	-14.2%	141%	283%
OCCN(CCO)c1nc(N2CCCCC2)c2nc(N(CCO)CCO)nc(N3CCCCC3)c2n1 [Dipyridamole]	36%	38.1%	80.3%	58.3%	82.1%	83.5%	3.21%	2%	1.09%	1.87%	56.3%	74.8%	0.036%	0.18%	-2.05	-2.06	-2.63%	7.46%	16.4%	19.4%	0.517%	-2.33%	-2.26%	-16%	-6.57%	-14.4%	88.9%	43.9%
CCN(CC)C(=S)SSC(=S)N(CC)CC [Disulfiram]	-96.4%	-100%	-100%	-99.9%	-99.3%	-100%	16.7%	49.8%	16.4%	16%	86.5%	13%	0%	0.576%	-0.587	-1.58	-2.95%	20.2%	-96.3%	-99.9%	-80.8%	-91.5%	-94.3%	-91.5%	-88.6%	-93.2%	-82.7%	-88.4%
COc1ccc2nc([S@@+]([O-])Cc3ncc(C)c(OC)c3C)[nH]c2c1 [Esomeprazole]	11.4%	21.1%	37%	43.5%	50.4%	35.7%	-3.81%	-3.61%	0.624%	1.41%	25.4%	50.1%	0%	0%	0.0722	-0.272	-1.96%	4.42%	15.2%	19%	-4.34%	-3.89%	-8.86%	-9.65%	-8.85%	-15.2%	72.4%	123%
